Experimental data published in the NIST ThermoML archive (doi:10.1016/j.jct.2013.10.034).
Numbers after ± are expanded uncertainties.

Experiment: xn = mol fraction of the nth substance listed
Settings: 100 kPa, Liquid; for viscosity: Falling or rolling sphere viscometry; for mass density: Vibrating tube method

CCCC[N+]1(C)CCCCC1.N#C[N-]C#N [1-butyl-1-methylpiperidinium dicyanamide] + O
Settings | mass density [kg/m3] | viscosity [mPa·s]
298.15 K, x1 = 0.0936 | 1007.95 ± 0.21 | 6.144 ± 0.98
298.15 K, x1 = 0.1748 | 1011.38 ± 0.21 | 10.16 ± 1.6
298.15 K, x1 = 0.2651 | 1013.31 ± 0.22 | 16.96 ± 2.7
298.15 K, x1 = 0.3581 | 1014.27 ± 0.23 | 24.65 ± 4
298.15 K, x1 = 0.4952 | 1014.9 ± 0.26 | 36.93 ± 5.9
298.15 K, x1 = 0.6246 | 1015.36 ± 0.3 | 49.82 ± 8
298.15 K, x1 = 0.7878 | 1015.65 ± 0.37 | 72.53 ± 12
298.15 K, x1 = 0.9216 | 1015.91 ± 0.45 | 103.3 ± 17
298.15 K, x1 = 1 | 1016.13 ± 0.5 | 123.3 ± 20
303.15 K, x1 = 0.0936 | 1004.63 ± 0.21 | 5.247 ± 0.84
303.15 K, x1 = 0.1748 | 1008.21 ± 0.21 | 8.56 ± 1.4
303.15 K, x1 = 0.2651 | 1010.2 ± 0.22 | 14.05 ± 2.2
303.15 K, x1 = 0.3581 | 1011.26 ± 0.23 | 20.16 ± 3.2
303.15 K, x1 = 0.4952 | 1012.13 ± 0.26 | 29.68 ± 4.8
303.15 K, x1 = 0.6246 | 1012.52 ± 0.3 | 40.79 ± 6.5
303.15 K, x1 = 0.7878 | 1012.82 ± 0.37 | 57.58 ± 9.2
303.15 K, x1 = 0.9216 | 1012.88 ± 0.45 | 79.12 ± 13
303.15 K, x1 = 1 | 1012.98 ± 0.5 | 92.97 ± 15
308.15 K, x1 = 0.0936 | 1001.56 ± 0.21 | 4.529 ± 0.73
308.15 K, x1 = 0.1748 | 1005.06 ± 0.21 | 7.3 ± 1.2
308.15 K, x1 = 0.2651 | 1007.08 ± 0.22 | 11.81 ± 1.9
308.15 K, x1 = 0.3581 | 1008.27 ± 0.23 | 16.78 ± 2.7
308.15 K, x1 = 0.4952 | 1009.31 ± 0.26 | 24.59 ± 3.9
308.15 K, x1 = 0.6246 | 1009.93 ± 0.3 | 32.52 ± 5.2
308.15 K, x1 = 0.7878 | 1010.41 ± 0.37 | 46 ± 7.4
308.15 K, x1 = 0.9216 | 1010.57 ± 0.44 | 64.15 ± 10
308.15 K, x1 = 1 | 1010.65 ± 0.49 | 75.58 ± 12
313.15 K, x1 = 0.0936 | 998.43 ± 0.21 | 3.946 ± 0.63
313.15 K, x1 = 0.1748 | 1001.86 ± 0.21 | 6.291 ± 1
313.15 K, x1 = 0.2651 | 1004.02 ± 0.22 | 10.05 ± 1.6
313.15 K, x1 = 0.3581 | 1005.25 ± 0.23 | 14.16 ± 2.3
313.15 K, x1 = 0.4952 | 1006.34 ± 0.26 | 20.59 ± 3.3
313.15 K, x1 = 0.6246 | 1007.01 ± 0.3 | 27.94 ± 4.5
313.15 K, x1 = 0.7878 | 1007.53 ± 0.37 | 38.87 ± 6.2
313.15 K, x1 = 0.9216 | 1007.8 ± 0.44 | 51.99 ± 8.3
313.15 K, x1 = 1 | 1007.92 ± 0.49 | 60.93 ± 9.8
318.15 K, x1 = 0.0936 | 995.26 ± 0.21 | 3.467 ± 0.56
318.15 K, x1 = 0.1748 | 998.67 ± 0.21 | 5.47 ± 0.88
318.15 K, x1 = 0.2651 | 1000.91 ± 0.22 | 8.651 ± 1.4
318.15 K, x1 = 0.3581 | 1002.25 ± 0.23 | 12.11 ± 1.9
318.15 K, x1 = 0.4952 | 1003.45 ± 0.26 | 17.45 ± 2.8
318.15 K, x1 = 0.6246 | 1004.15 ± 0.29 | 23.32 ± 3.7
318.15 K, x1 = 0.7878 | 1004.74 ± 0.36 | 32.26 ± 5.2
318.15 K, x1 = 0.9216 | 1005.06 ± 0.44 | 42.71 ± 6.9
318.15 K, x1 = 1 | 1005.2 ± 0.49 | 49.79 ± 8
323.15 K, x1 = 0.0936 | 992.05 ± 0.21 | 3.072 ± 0.49
323.15 K, x1 = 0.1748 | 995.43 ± 0.21 | 4.8 ± 0.77
323.15 K, x1 = 0.2651 | 997.8 ± 0.22 | 7.52 ± 1.2
323.15 K, x1 = 0.3581 | 999.24 ± 0.23 | 10.45 ± 1.7
323.15 K, x1 = 0.4952 | 1000.53 ± 0.25 | 14.98 ± 2.4
323.15 K, x1 = 0.6246 | 1001.31 ± 0.29 | 19.5 ± 3.1
323.15 K, x1 = 0.7878 | 1001.95 ± 0.36 | 27.35 ± 4.4
323.15 K, x1 = 0.9216 | 1002.33 ± 0.44 | 35.62 ± 5.7
323.15 K, x1 = 1 | 1002.47 ± 0.48 | 41.31 ± 6.6
328.15 K, x1 = 0.0936 | 988.8 ± 0.21 | 2.741 ± 0.44
328.15 K, x1 = 0.1748 | 992.22 ± 0.21 | 4.249 ± 0.68
328.15 K, x1 = 0.2651 | 994.68 ± 0.22 | 6.592 ± 1.1
328.15 K, x1 = 0.3581 | 996.18 ± 0.23 | 9.141 ± 1.5
328.15 K, x1 = 0.4952 | 997.63 ± 0.25 | 12.99 ± 2.1
328.15 K, x1 = 0.6246 | 998.47 ± 0.29 | 16.43 ± 2.6
328.15 K, x1 = 0.7878 | 999.19 ± 0.36 | 23.47 ± 3.8
328.15 K, x1 = 0.9216 | 999.6 ± 0.43 | 30.08 ± 4.8
328.15 K, x1 = 1 | 999.77 ± 0.48 | 34.72 ± 5.6
333.15 K, x1 = 0.0936 | 985.51 ± 0.21 | 2.461 ± 0.39
333.15 K, x1 = 0.1748 | 988.96 ± 0.21 | 3.788 ± 0.61
333.15 K, x1 = 0.2651 | 991.37 ± 0.22 | 6.05 ± 0.97
333.15 K, x1 = 0.3581 | 993.2 ± 0.23 | 8.041 ± 1.3
333.15 K, x1 = 0.4952 | 994.75 ± 0.25 | 11.37 ± 1.8
333.15 K, x1 = 0.6246 | 995.66 ± 0.29 | 13.93 ± 2.2
333.15 K, x1 = 0.7878 | 996.46 ± 0.36 | 20.41 ± 3.3
333.15 K, x1 = 0.9216 | 996.9 ± 0.43 | 25.64 ± 4.1
333.15 K, x1 = 1 | 997.08 ± 0.48 | 29.45 ± 4.7
338.15 K, x1 = 0.0936 | 982.59 ± 0.21 | 2.223 ± 0.36
338.15 K, x1 = 0.1748 | 985.7 ± 0.21 | 3.407 ± 0.55
338.15 K, x1 = 0.2651 | 988.38 ± 0.22 | 5.181 ± 0.83
338.15 K, x1 = 0.3581 | 990.24 ± 0.23 | 7.12 ± 1.1
338.15 K, x1 = 0.4952 | 991.9 ± 0.25 | 10.04 ± 1.6
338.15 K, x1 = 0.6246 | 992.85 ± 0.29 | 12.9 ± 2.1
338.15 K, x1 = 0.7878 | 993.65 ± 0.36 | 17.17 ± 2.8
338.15 K, x1 = 0.9216 | 994.16 ± 0.43 | 21.35 ± 3.4
338.15 K, x1 = 1 | 994.39 ± 0.48 | –
343.15 K, x1 = 0.0936 | 979.99 ± 0.21 | 2.021 ± 0.32
343.15 K, x1 = 0.1748 | 982.41 ± 0.21 | 3.088 ± 0.49
343.15 K, x1 = 0.2651 | 984.88 ± 0.22 | 4.682 ± 0.75
343.15 K, x1 = 0.3581 | 986.93 ± 0.23 | 6.355 ± 1
343.15 K, x1 = 0.4952 | 988.84 ± 0.25 | 8.928 ± 1.4
343.15 K, x1 = 0.6246 | 990.06 ± 0.29 | 11.72 ± 1.9
343.15 K, x1 = 0.7878 | 990.92 ± 0.36 | 15.74 ± 2.5
343.15 K, x1 = 0.9216 | 991.45 ± 0.43 | 19.52 ± 3.1
343.15 K, x1 = 1 | 991.72 ± 0.48 | 21.98 ± 3.5
